Consider 8 compounds from patent US10519140B2, “Indolin-2-one derivatives” (Hoffmann-La Roche Inc., priority 2015, dated 2019).

In general, IC50 refers to the concentration at which inhibition is half-maximal.

The assay has as its target T1, mouse ENT-1 transporter (Mus musculus, UniProt Q9JIM1).
T1 construct: expressed in transfected cells
T1 sequence (Q9JIM1 1-460): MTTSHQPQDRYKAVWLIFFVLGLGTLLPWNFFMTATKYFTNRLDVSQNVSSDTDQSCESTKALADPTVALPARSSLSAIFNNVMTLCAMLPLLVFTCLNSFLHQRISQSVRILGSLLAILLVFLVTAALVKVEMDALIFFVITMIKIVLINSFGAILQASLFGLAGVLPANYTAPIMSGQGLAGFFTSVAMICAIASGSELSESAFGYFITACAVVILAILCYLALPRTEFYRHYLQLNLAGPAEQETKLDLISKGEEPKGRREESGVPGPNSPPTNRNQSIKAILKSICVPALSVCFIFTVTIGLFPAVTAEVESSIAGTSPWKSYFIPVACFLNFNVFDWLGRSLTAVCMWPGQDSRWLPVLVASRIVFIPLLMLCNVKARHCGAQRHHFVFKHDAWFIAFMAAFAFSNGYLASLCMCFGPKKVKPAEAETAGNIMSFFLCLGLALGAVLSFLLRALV
In words: Adenosine transport activity (ENT1, [3H]-adenosine uptake inhibition). The format is cell-based. The settings on record: stable cells expressing mouse ENT-1; [2,8-3H]-adenosine 6 nM, 20 min. In outline:
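Stable mammalian cells expressing mouse ENT1 are seeded at 60,000 cells/well and washed into HEPES-Tris pH 7.4 uptake buffer. Compounds (1% DMSO) are added at RT, immediately followed by 6 nM [3H]-adenosine for 20 min. Cell-associated radioactivity is counted by scintillation after ice-cold washes, with nonspecific uptake defined by 10 μM NBTI.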

Consider `Cc1ncc(-c2ccc3c(c2)N(c2cncc(N4CCOCC4)n2)C(=O)C3(C)C)cn1` [Example 1, 3,3-Dimethyl-6-(2-methylpyrimidin-5-yl)-1-(6-morpholinopyrazin-2-yl)indolin-2-one], for which half-maximal inhibition (IC50) required 0.039 µM.

`Cc1ncc(-c2ccc3c(c2)N(c2cncc(N4CCCC4=O)n2)C(=O)C3(C)C)cn1` [Example 3, 3,3-Dimethyl-6-(2-methylpyrimidin-5-yl)-1-(6-(2-oxopyrrolidin-1-yl)pyrazin-2-yl)indolin-2-one] showed an IC50 of 0.057 µM.

`Cc1ncc(-c2ccc3c(c2)N(c2cncc(N4CCOC4=O)n2)C(=O)C3(C)C)cn1` [Example 15, 3-(6-(3,3-Dimethyl-6-(2-methylpyrimidin-5-yl)-2-oxoindolin-1-yl)pyrazin-2-yl)oxazolidin-2-one] had an IC50 of 0.026 µM.

In turn, `Cc1ncc(-c2ccc3c(c2)N(c2cnc(C)c(N4CCOCC4)n2)C(=O)C3(C)C)cn1` [Example 18, 3,3-Dimethyl-1-(5-methyl-6-morpholinopyrazin-2-yl)-6-(2-methylpyrimidin-5-yl)indolin-2-one] yielded a half-maximal inhibitory concentration (IC50) of 0.097 µM.

In the case of `Cc1ncc(-c2ccc3c(c2)N(c2cnc(C)c(N4CCOC4=O)n2)C(=O)C3(C)C)cn1` [Example 20, 3-(6-(3,3-Dimethyl-6-(2-methylpyrimidin-5-yl)-2-oxoindolin-1-yl)-3-methylpyrazin-2-yl)oxazolidin-2-one], it took 0.0165 µM to reach half-maximal inhibition (IC50).

As to `Cc1ncc(-c2ccc3c(c2)N(c2ccc4c(n2)N(C)C(=O)C4(C)C)C(=O)C3(C)C)cn1` [Example 39, 6-(3,3-Dimethyl-6-(2-methylpyrimidin-5-yl)-2-oxoindolin-1-yl)-1,3,3-trimethyl-1H-pyrrolo[2,3-b]pyridin-2(3H)-one], the IC50 amounted to 0.0269 µM.

`Cc1ncc(-c2ccc3c(c2)N(c2cnc(-n4ccnc4C)cn2)C(=O)C3(C)C)cn1` [Example 50, 3,3-Dimethyl-1-(5-(2-methyl-1H-imidazol-1-yl)pyrazin-2-yl)-6-(2-methylpyrimidin-5-yl)indolin-2-one]: the IC50 was 0.0311 µM.

In the case of `Cc1ncc(-c2ccc3c(c2)N(c2cnc4c(c2)C(C)(C)C(=O)N4C)C(=O)C3(C)C)cn1` [Example 54, 5-(3,3-Dimethyl-6-(2-methylpyrimidin-5-yl)-2-oxoindolin-1-yl)-1,3,3-trimethyl-1H-pyrrolo[2,3-b]pyridin-2(3H)-one], half-maximal inhibition (IC50) required 0.0239 µM.
